Assay results taken from PubChem BioAssay (NCI).
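A five-concentration, 48-hour dose response in 96-well plates underlies each endpoint, interpolated linearly between surrounding concentrations. Definition used: TGI = concentration required for complete inhibition of growth.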

Key:
Experiment in all cases: NCI-60 cell line screen, 48 h
NCI-H522 lung = tested on: NCI-H522 lung
HCT-116 colon = tested on: HCT-116 colon
SNB-19 CNS = tested on: SNB-19 CNS
SK-OV-3 ovarian = tested on: SK-OV-3 ovarian
U251 CNS = tested on: U251 CNS
SK-MEL-2 melanoma = tested on: SK-MEL-2 melanoma
UACC-257 melanoma = tested on: UACC-257 melanoma
SF-295 CNS = tested on: SF-295 CNS
HOP-92 NSCLC = tested on: HOP-92 NSCLC
OVCAR-8 ovarian = tested on: OVCAR-8 ovarian
SN12C renal = tested on: SN12C renal
MDA-MB-435 = tested on: MDA-MB-435
SK-MEL-5 melanoma = tested on: SK-MEL-5 melanoma
IGROV1 ovarian = tested on: IGROV1 ovarian
HCC-2998 colon = tested on: HCC-2998 colon
HCT-15 colon = tested on: HCT-15 colon
MDA-MB-231 breast = tested on: MDA-MB-231 breast
TK-10 renal = tested on: TK-10 renal
NCI/ADR-RES ovarian = tested on: NCI/ADR-RES ovarian
SF-539 CNS = tested on: SF-539 CNS
ACHN renal = tested on: ACHN renal
NCI-H226 lung = tested on: NCI-H226 lung
MOLT-4 leukemia = tested on: MOLT-4 leukemia
HOP-62 NSCLC = tested on: HOP-62 NSCLC
HT29 colon = tested on: HT29 colon
T-47D breast = tested on: T-47D breast
A549 NSCLC = tested on: A549 NSCLC
HL-60(TB) leukemia = tested on: HL-60(TB) leukemia
OVCAR-5 ovarian = tested on: OVCAR-5 ovarian
OVCAR-3 ovarian = tested on: OVCAR-3 ovarian
MDA-N = tested on: MDA-N
PC-3 prostate = tested on: PC-3 prostate
BT-549 breast = tested on: BT-549 breast
RPMI-8226 leukemia = tested on: RPMI-8226 leukemia
786-0 renal = tested on: 786-0 renal
OVCAR-4 ovarian = tested on: OVCAR-4 ovarian
CAKI-1 renal = tested on: CAKI-1 renal
SNB-75 CNS = tested on: SNB-75 CNS
NCI-H460 lung = tested on: NCI-H460 lung
MCF7 breast = tested on: MCF7 breast
UO-31 renal = tested on: UO-31 renal
LOX IMVI melanoma = tested on: LOX IMVI melanoma
CCRF-CEM leukemia = tested on: CCRF-CEM leukemia
K-562 leukemia = tested on: K-562 leukemia
RXF 393 renal = tested on: RXF 393 renal
UACC-62 melanoma = tested on: UACC-62 melanoma
EKVX NSCLC = tested on: EKVX NSCLC
HS 578T breast = tested on: HS 578T breast
SW-620 colon = tested on: SW-620 colon
MALME-3M melanoma = tested on: MALME-3M melanoma
SR leukemia = tested on: SR leukemia
NCI-H23 lung = tested on: NCI-H23 lung
KM12 colon = tested on: KM12 colon
SK-MEL-28 melanoma = tested on: SK-MEL-28 melanoma
DU-145 prostate = tested on: DU-145 prostate
SF-268 CNS = tested on: SF-268 CNS
COLO 205 colon = tested on: COLO 205 colon
M14 melanoma = tested on: M14 melanoma
A498 renal = tested on: A498 renal

In the case of Nc1nc(Cl)cc(NCC2(CCO)CCC2)n1, the TGI (NCI-H522 lung) is reported as > 100 µM, the TGI (HCT-116 colon) is reported as > 100 µM and the TGI (SNB-19 CNS) is reported as > 100 µM. The TGI (SK-OV-3 ovarian) was > 100 µM, the TGI (U251 CNS) was > 100 µM and the TGI (SK-MEL-2 melanoma) was > 100 µM. For the same compound, the TGI (UACC-257 melanoma) was > 100 µM, the TGI (SF-295 CNS) was > 10 µM and the TGI (HOP-92 NSCLC) was > 100 µM. The TGI (OVCAR-8 ovarian) was > 100 µM, the TGI (SN12C renal) was > 100 µM and the TGI (MDA-MB-435) was > 100 µM. The TGI (SK-MEL-5 melanoma) was > 100 µM, the TGI (IGROV1 ovarian) was > 100 µM and the TGI (HCC-2998 colon) was > 100 µM. The TGI (HCT-15 colon) was > 100 µM, the TGI (MDA-MB-231 breast) was > 100 µM and the TGI (TK-10 renal) was > 100 µM. For the same compound, the TGI (NCI/ADR-RES ovarian) was > 100 µM, the TGI (SF-539 CNS) was > 100 µM and the TGI (ACHN renal) was > 100 µM. The TGI (NCI-H226 lung) was > 100 µM, the TGI (MOLT-4 leukemia) was > 100 µM and the TGI (HOP-62 NSCLC) was > 100 µM. For the same compound, the TGI (HT29 colon) was > 100 µM, the TGI (T-47D breast) was > 100 µM and the TGI (A549 NSCLC) was > 100 µM. For the same compound, the TGI (HL-60(TB) leukemia) was > 100 µM, the TGI (OVCAR-5 ovarian) was > 100 µM and the TGI (OVCAR-3 ovarian) was > 100 µM. For the same compound, the TGI (MDA-N) was > 100 µM, the TGI (PC-3 prostate) was > 100 µM and the TGI (BT-549 breast) was > 100 µM. For the same compound, the TGI (RPMI-8226 leukemia) was > 100 µM, the TGI (786-0 renal) was > 100 µM and the TGI (OVCAR-4 ovarian) was > 100 µM. The TGI (CAKI-1 renal) was > 100 µM, the TGI (SNB-75 CNS) was > 10 µM and the TGI (NCI-H460 lung) was > 100 µM. The TGI (MCF7 breast) was > 100 µM, the TGI (UO-31 renal) was > 100 µM and the TGI (LOX IMVI melanoma) was > 100 µM. The TGI (CCRF-CEM leukemia) was > 100 µM, the TGI (K-562 leukemia) was > 100 µM and the TGI (RXF 393 renal) was > 100 µM. For the same compound, the TGI (UACC-62 melanoma) was > 10 µM, the TGI (EKVX NSCLC) was > 100 µM and the TGI (HS 578T breast) was > 100 µM. For the same compound, the TGI (SW-620 colon) was > 100 µM, the TGI (MALME-3M melanoma) was > 100 µM and the TGI (SR leukemia) was > 100 µM. The TGI (NCI-H23 lung) was > 100 µM, the TGI (KM12 colon) was > 100 µM and the TGI (SK-MEL-28 melanoma) was > 100 µM. The TGI (DU-145 prostate) was > 100 µM.

Compound COc1ccc(C2CC(c3c(O)ccc4ccccc34)=NN2)cc1OC (configuration not stated) has a TGI (NCI-H522 lung) of 8.58 µM, a TGI (SNB-19 CNS) of 6.34 µM and a TGI (SK-OV-3 ovarian) of 28.8 µM. The TGI (U251 CNS) was 11 µM, the TGI (SK-MEL-2 melanoma) was 30.9 µM and the TGI (UACC-257 melanoma) was 20.4 µM. The TGI (SF-295 CNS) was 17.6 µM, the TGI (SF-268 CNS) was 11.5 µM and the TGI (HOP-92 NSCLC) was 24.7 µM. For the same compound, the TGI (OVCAR-8 ovarian) was 17.8 µM, the TGI (SN12C renal) was 32.2 µM and the TGI (MDA-MB-435) was 11.6 µM. For the same compound, the TGI (SK-MEL-5 melanoma) was 12.6 µM, the TGI (IGROV1 ovarian) was 20.1 µM and the TGI (HCC-2998 colon) was 6.15 µM. It also gave a TGI (HCT-15 colon) of 18.6 µM, a TGI (MDA-MB-231 breast) of 53.4 µM and a TGI (TK-10 renal) of 14.4 µM. The TGI (NCI/ADR-RES ovarian) was 9.77 µM, the TGI (SF-539 CNS) was 18.4 µM and the TGI (ACHN renal) was 4.82 µM. It also gave a TGI (NCI-H226 lung) of 14.6 µM, a TGI (MOLT-4 leukemia) of 5.44 µM and a TGI (HOP-62 NSCLC) of 17.5 µM. It also gave a TGI (HT29 colon) of 4.98 µM, a TGI (T-47D breast) of 58.2 µM and a TGI (COLO 205 colon) of 46.5 µM. It also gave a TGI (HL-60(TB) leukemia) of 63.5 µM, a TGI (OVCAR-5 ovarian) of 18.2 µM and a TGI (OVCAR-3 ovarian) of 20.6 µM. The TGI (MDA-N) was 22.8 µM, the TGI (PC-3 prostate) was > 100 µM and the TGI (M14 melanoma) was 17.3 µM. For the same compound, the TGI (BT-549 breast) was 16.1 µM, the TGI (RPMI-8226 leukemia) was 65 µM and the TGI (A498 renal) was 43.6 µM. The TGI (OVCAR-4 ovarian) was 20.8 µM, the TGI (CAKI-1 renal) was 58.4 µM and the TGI (SNB-75 CNS) was 12.2 µM. It also gave a TGI (NCI-H460 lung) of 8.24 µM, a TGI (MCF7 breast) of 34.5 µM and a TGI (UO-31 renal) of 5.7 µM. For the same compound, the TGI (CCRF-CEM leukemia) was > 100 µM, the TGI (K-562 leukemia) was > 100 µM and the TGI (RXF 393 renal) was 24.6 µM. The TGI (UACC-62 melanoma) was 13.6 µM, the TGI (EKVX NSCLC) was 22.1 µM and the TGI (HS 578T breast) was 7.43 µM. The TGI (MALME-3M melanoma) was 16.3 µM, the TGI (NCI-H23 lung) was 13.8 µM and the TGI (KM12 colon) was 11.4 µM. The TGI (DU-145 prostate) was 36.1 µM.
